{"source": "paper PMC4267622", "about": "“Pin1-mediated Sp1 phosphorylation by CDK1 increases Sp1 stability and decreases its DNA-binding activity during mitosis” (Nucleic Acids Research, 2014)", "key": {"[1]": {"tested_on": "CDK1/cyclin B1", "test": "In vitro CDK1/cyclin B1 kinase assay", "format": "biochemical", "conditions": "15 min; for phosphorylation by CDK1 (as substrate): 1 μg Sp1 protein, 50 ng CDK1/cyclin B1, 30°C; for effect on CDK1-mediated Sp1 phosphorylation: substrate GST-Sp1 (619–785), [γ-^32P] ATP, 30°C", "method": "For the in vitro phosphorylation analysis, the GST-Sp1(619-785), GST-Sp1(619-785)-T739A, GST-Sp1(619-785)-T739D, GST-Sp1(619-785)-P6, GST-Sp1(619-785)-Z12, GST-Sp1(619-715) or GST-Sp1(619-740) were purified from Escherichia coli BL21 (DE3). These different Sp1 proteins and active CDK1/cyclin B1 (New England Biolabs, Beverly, MA) were used to examine Sp1 phosphorylation in vitro. Each reaction (20 μl) contained 1 μg of purified Sp1, 50 ng of active CDK1/cyclin B1, 2 μCi of [γ-^32P] ATP (GE Healthcare Life Sciences), 1 mM ATP (New England Biolabs) and […] of 10× kinase buffer containing 500 mM HEPES pH 7.4, 10 mM MgCl2, 1 mM EGTA and 1 mM dithiothreitol. The phosphorylation reactions were incubated at 30°C for 15 min. After the incubation, one-half of the reaction was added to 10 μl of 2×electrophoresis sample buffer, which was then heated to 95°C for 5 min. Proteins in the mixtures were immediately separated using SDS-polyacrylamide gel electrophoresis (PAGE)."}, "[2]": {"tested_on": "Sp1-binding probe of p21^WAF1/CIP1 promoter", "test": "DNA affinity precipitation assay (DAPA)", "conditions": "4°C, 1 h", "method": "Cell lysate incubated with 1 μg of binding probes in 500 μl binding of buffer (2 mM MgCl2, 60 mM KCl, 20 mM Tris-HCl pH 7.8, 5% glycerol, 0.5 mM EDTA and 0.02% NP-40). After incubation for 1 h at 4°C, the mixture was incubated with 30 μl of streptavidin-agarose beads (GE Healthcare Life Sciences) for 1 h at 4°C. The mixture was washed three times by binding buffer. The proteins in the beads were eluted by 2X sample buffer and analysed by SDS-PAGE and immunoblotting. The Sp1-binding probe 5′-[…]-3′, localized from −82 to −50 bp within the promoter of p21^WAF1/CIP1, was biotinylated at 5′ termini and then annealed with complementary strands."}, "[3]": {"tested_on": "mitotic Sp1", "test": "GST-Pin1 pull-down with HeLa lysates", "format": "binding", "conditions": "mitotic HeLa lysate; for interaction with phospho-Sp1(T739): antibody against phospho-Sp1 (T739)", "method": "(§1) The mixture was incubated with shaking for 1 h at 4°C. The beads were washed three times in NETN buffer and added to the interphase or mitotic cell extract. The reaction mixture was incubated on ice for 1 h. The beads were then washed in NETN buffer. Proteins were eluted by sample buffer and separated by SDS- PAGE."}, "[4]": {"tested_on": "JNK1", "test": "In vitro kinase assay with JNK1", "format": "biochemical", "conditions": "substrate GST-Sp1(619-785)"}, "[5]": {"molecular_target": "Pin1 (UniProt Q13526)", "test": "isothermal titration calorimetry", "conditions": "reference: Thr739-Sp1 peptide (unphosphorylated); sites T739"}, "[6]": {"molecular_target": "Pin1 (UniProt Q13526)", "test": "co-IP with anti-Pin1, Sp1 blot", "conditions": "reference: GFP-Sp1 wild type; sites T739"}, "[7]": {"tested_on": "HeLa cells", "test": "Flow cytometry with PI staining (cell cycle)", "format": "cell-based", "conditions": "nocodazole 16 h", "method": "The cells washed by cold PBS and then fixed in 70% alcohol or 4% paraformaldehyde at 4°C for 2 h. After fixation, the cells washed by cold PBS and treated with 0.1% TritonX-100, 10μg/ml RNase and 50 μg/ml propidium iodide for 1 h. The cells were analysed by flow cytometer (Cell Lab Quanta™ SC; Beckman Coulter or FACSCalibur; BD Biosciences)."}, "[8]": {"tested_on": "Pin1", "test": "Pin1 interaction of Sp1 mutants (anti-Pin1 immunoprecipitation / pull-down)", "format": "binding", "conditions": "mitotic HeLa lysates / pull-down", "method": "Cell lysates were prepared by using mRIPA buffer (50 mM Tris-HCl, pH 7.8, 150 mM NaCl, 5 mM ethylenediaminetetraacetic acid (EDTA), 0.1% Triton-X100, 0.05% NP-40). The lysates were incubated with anti-Sp1 (1:500), anti-CDK1 (1:200), anti-Pin1 (1:250), anti-HA tag (1:250), or anti-GFP tag (1:200) antibodies at 4°C for 1 h. After 1 h incubation, the mixture was incubated with Protein A or G Sepharose agarose beads at 4°C for 1 h. The beads were collected and washed three times by mRIPA buffer. The beads were added 2X electrophoresis sample buffer and analysed by immunoblotting.\nas §1"}, "[9]": {"tested_on": "Pin1", "test": "Co-localization of Sp1 and Pin1 by immunofluorescence in sub-mitotic stages", "format": "cell-based", "conditions": "HeLa", "method": "The cells were fixed with 4% paraformaldehyde (Sigma-Aldrich) in PBS according to a method described previously ([3]). Immunostaining was conducted with primary antibodies such as anti-Sp1, anti-GFP tag (Santa Cruz Biotechnology, Santa Cruz, CA), or anti-Pin1 (Calbiochem, San Diego, CA) antibodies. The cells were then treated with Alexa Fluor 488-conjugated goat anti-mouse or rabbit immunoglobulin G (IgG) and Alexa Fluor 568-conjugated goat anti-mouse or rabbit IgG polyclonal antibodies (Jackson ImmunoResearch Laboratories Inc., West Grove, PA). Finally, the cells were mounted in 90% glycerol containing 4'-6-diamidino-2-phenylindole (DAPI) (Invitrogen), and examined using a confocal laser-scanning microscope (FluoView^TM FV 1000; Olympus, Melville, NY) or immunofluorescence microscope (Personal DV Applied Precision, Issaquah, WA). The images were analysed with softWoRx software (Applied Precision Inc.)."}, "[10]": {"molecular_target": "Pin1 (purified, used in ITC) (UniProt Q13526)", "test": "ITC; Sp1 peptide (900 mM [sic]) titrated into Pin1 (60 mM [sic]) in the cell; 10 mM HEPES pH 7.5, 100 mM NaCl, 1 mM DTT; 25°C; MicroCal iTC200"}, "[11]": {"molecular_target": "GST-Sp1(619-785) (UniProt P08047 619-785)", "test": "DAPA (streptavidin pull-down); DAPA: 1 ug probe in 500 ul 20 mM Tris-HCl pH 7.8, 60 mM KCl, 2 mM MgCl2, 0.5 mM EDTA, 5% glycerol, 0.02% NP-40; 1 h at 4 C, then streptavidin-agarose 1 h at 4 C", "conditions": "protein: recombinant; tags: GST; label: 5' biotin on S1 strand; blunt"}, "[12]": {"molecular_target": "GST-Sp1(619-785)-T739D (UniProt P08047 619-785, T739D)", "test": "DAPA (streptavidin pull-down); no significant difference from GST-Sp1(619-785); DAPA: 1 ug probe in 500 ul 20 mM Tris-HCl pH 7.8, 60 mM KCl, 2 mM MgCl2, 0.5 mM EDTA, 5% glycerol, 0.02% NP-40; 1 h at 4 C, then streptavidin-agarose 1 h at 4 C", "conditions": "protein: recombinant; tags: GST; label: 5' biotin on S1 strand; blunt"}}}
{"molecule": "GST-Sp1 (619–715): truncated Sp1, amino acids 619–715", "values": [{"measurement": "phosphorylation by CDK1 (as substrate)", "setting": "[1]", "value": "No signal was detected"}]}
{"molecule": "GST-Sp1 (619–740): truncated Sp1, C-terminus (741–785) ablated", "values": [{"measurement": "phosphorylation by CDK1 (as substrate)", "setting": "[1]", "value": "an increased phosphorylation signal was obtained"}]}
{"molecule": "GST-Sp1 (619–785)-T739A: T739A mutant of GST-Sp1 (619–785)", "values": [{"measurement": "phosphorylation by CDK1 (as substrate)", "setting": "[1]", "value": "No signal was detected"}]}
{"molecule": "GST-Sp1 (619–785)-T739D: mimic phosphorylation form of GST-Sp1 (619–785)", "values": [{"measurement": "DNA-binding signal", "setting": "[2]; purified GST-Sp1 proteins, four independent experiments", "value": "No significant difference in the DNA-binding signal"}]}
{"molecule": "GST-Sp1 (619–785): truncated Sp1, wild-type C-terminal region", "values": [{"measurement": "phosphorylation by CDK1 (as substrate)", "setting": "[1]", "value": "phosphorylated by CDK1, albeit to a lesser extent"}]}
{"molecule": "GST-WW: recognition motif (WW domain) of Pin1", "values": [{"measurement": "interaction with phospho-Sp1(T739)", "setting": "[3]", "value": "interacted with phospho-Sp1(T739)"}, {"measurement": "effect on CDK1-mediated Sp1 phosphorylation", "setting": "[1]", "value": "but not Pin1-W34A and Pin1-WW, increased the signal"}]}
{"molecule": "Pin1-W34A: Pin1 mutated in the recognition domain", "values": [{"measurement": "interaction with mitotic Sp1", "setting": "[3]", "value": "but not Pin1-W34A, interacted with mitotic Sp1"}, {"measurement": "effect on CDK1-mediated Sp1 phosphorylation", "setting": "[1]", "value": "but not Pin1-W34A and Pin1-WW, increased the signal"}]}
{"molecule": "Pin1: recombinant wild-type Pin1, peptidyl-prolyl isomerase", "values": [{"measurement": "interaction with mitotic Sp1", "setting": "[3]", "value": "interacted with mitotic Sp1"}, {"measurement": "interaction with phospho-Sp1(T739)", "setting": "[3]", "value": "interacted with phospho-Sp1(T739)"}, {"measurement": "effect on JNK1 phosphorylation of Sp1", "setting": "[4]", "value": "this phosphorylation remained unaffected"}, {"measurement": "effect on CDK1-mediated Sp1 phosphorylation", "setting": "[1]", "value": "increased the signal of CDK1-mediated Sp1 phosphorylation in a dose dependent manner"}]}
{"molecule": "Sp1 735-745 (from UniProt P08047) Thr739(p)-Sp1 peptide", "values": [{"measurement": "other: Ka", "setting": "[5]", "value": 7.4, "unit": "M⁻¹"}]}
{"molecule": "Sp1 (from UniProt P08047) GFP-Sp1 T739A", "values": [{"measurement": "binding against the reference", "setting": "[6]", "value": "weaker"}]}
{"molecule": "Sp1-4A: Sp1 mutant S720A, T723A, T737A and T739A", "values": [{"measurement": "DNA-binding activity to the p21^CIP/WAP promoter", "setting": "[2]; mitotic extract of HeLa cells, three independent experiments", "value": "increased its DNA-binding activity to the p21^CIP/WAP promoter"}, {"measurement": "cells entered mitosis", "setting": "[7]", "value": 62, "unit": "%"}]}
{"molecule": "Sp1-T739A: phosphorylation site mutated Sp1", "values": [{"measurement": "interaction with Pin1", "setting": "[8]", "value": "decreased interaction with Pin1"}]}
{"molecule": "Sp1-T739D: mimic phosphorylated Sp1", "values": [{"measurement": "interaction with Pin1", "setting": "[8]", "value": "increased interaction with GST-Pin1"}]}
{"molecule": "Sp1: transcription factor Sp1; endogenous or GFP-Sp1-WT expressed in HeLa cells", "values": [{"measurement": "Sp1 interaction/co-localization with Pin1", "setting": "[9]; anaphase (within 20–60 min of nocodazole release)", "value": 93, "unit": "%"}, {"measurement": "Sp1 interaction/co-localization with Pin1", "setting": "[9]; metaphase (within 20–60 min of nocodazole release)", "value": 91.4, "unit": "%"}, {"measurement": "Sp1 interaction/co-localization with Pin1", "setting": "[9]; prophase (within 20 min of nocodazole release)", "value": 81.3, "unit": "%"}]}
{"molecule": "Thr739(p)-Sp1 peptide (from UniProt P08047 735-745)", "values": [{"measurement": "Ka", "setting": "[10]", "value": 7400, "unit": "M⁻¹"}, {"measurement": "Kd", "setting": "[10]", "value": 50, "unit": "µM"}, {"measurement": "dH", "setting": "[10]", "value": -6.8, "unit": "kcal/mol"}, {"measurement": "stoichiometry N", "setting": "[10]", "value": 0.93}]}
{"molecule": "p21WAF1/CIP1 promoter Sp1 probe (-82 to -50) (dsDNA) DNA 1: CCCGCCTCCTTGAGGCGGGCCCGGGCGGGGCGG DNA 2: CCGCCCCGCCCGGGCCCGCCTCAAGGAGGCGGG", "values": [{"measurement": "binding result", "setting": "[11]", "value": "binds"}, {"measurement": "binding result", "setting": "[12]", "value": "binds"}]}
